What was measured:
TNFa/TNFRI interaction = TNFa/TNFRI interaction (Homo sapiens, UniProt P01375); experiment: TNFa/TNFRI interaction displacement test; format: binding; conditions: for Displacement (%): compounds at 50 μM, human TNFRI 100 ng/ml; for Displacement EC50 TNFa in presence of compound: Difference: Compound EC50 minus SPD304 EC50;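 as to Displacement EC50 TNFa in presence of compound: Difference: SPD304 reference at 20 µM final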
Protocol: Microtiter plates (96 wells) are covered with 100 μl per well of human TNFRI, at a concentration of 100 ng/ml, then incubated overnight at 4° C. The following day, after two washes in PBS/Tween20, the plates are saturated with 150 μl of PBS/BSA 2% for 2 h at 37° C.
100 μl of each mixture are then transferred to the microtiter plate, respecting the established plate plan and incubated overnight at 4° C.
After three washes, 100 μl of biotinylated anti-cytokine secondary antibody are added to each well and incubated for 2 h at 37° C. After three washes, 100 Avl Avidin-HRP (dilution 1/500th) are added and incubated for 30 minutes at 37° C. […] The plates are then read with a spectrophotometer at 450 nm, measuring the optical density (OD) for each well.

IL-4 = molecular target: T1, IL-4 (Homo sapiens, UniProt P05112); experiment: Immunoassay binding test, IL-4; conditions: for IC50: IL-4 400 ng/ml, receptor 100 ng/ml, read-out: BINDING IL4 IC50
T1 sequence (P05112 25-153): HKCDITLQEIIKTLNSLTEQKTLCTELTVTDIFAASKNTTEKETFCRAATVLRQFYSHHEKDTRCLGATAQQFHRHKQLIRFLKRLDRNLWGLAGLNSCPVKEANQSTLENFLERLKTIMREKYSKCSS
Protocol: (§1) Microtiter plates (96 wells) are covered with 100 μl of receptor per well, and incubated overnight at 4° C. The following day, after 2 washes in PBS/Tween20, the plates are saturated with 150 μl of PBS/BSA 2% per well, for 2 h at 37° C. Synthetic compounds are diluted in series (final concentrations: 100 to 0.78 μM) then a fixed amount of cytokine in PBS/BSA 1% is added to the compounds, in a final volume of 120 μl per well. […] The cytokine is diluted in series (six concentrations) in a final volume of 120 μl per well. The cytokine is used in the absence of small molecule as well as the range of SPD304 as positive controls and the absence of cytokine and synthetic molecule as negative control. The different mixtures are incubated for 2 h at 37° C. 100 μl of each mixture are then transferred to the microtiter plate, respecting the plate plan previously defined and incubated overnight at 4° C. After three washes, 100 μl of biotinylated anti-cytokine secondary antibody are added to each well, then incubated for 2 h at 37° C. After three washes, 100 μl of Avidin-HRP (1/500th dilution) are added and incubated for 30 minutes at 37° C. […] The plates are then read with a spectrophotometer at 450 nm, measuring the optical density for each well.
(§2) This binding test is carried out with different cytokines: TNFa, IL-4, IL-6 and IL-13. For IL-6, the incubation of molecules with the cytokine also requires the presence of IL-6Ra at a final concentration of 200 ng/ml.
(§3) The final concentrations used for each of the cytokines are presented below: […]

IL-13 = IL-13 (Homo sapiens, UniProt P35225); experiment: Immunoassay binding test, IL-13; conditions: for IC50: IL-13 400 ng/ml, receptor 100 ng/ml, read-out: BINDING IL13 IC50
Protocol: as §1, with “The cytokine is used in the absence of small molecule as well as the range of SPD304 as positive controls and the absence of cytokine and synthetic molecule as negative control.” left out
as §2, §3

TNFα = TNFα (Homo sapiens, UniProt P01375); experiment: Immunoassay binding test, TNFa; conditions: compounds 100 to 0.78 μM; TNFα 10 ng/ml, receptor 100 ng/ml; read-out: BINDING TNF IC50
Protocol: as §1, with “C.” for “C. Synthetic compounds are diluted in series (final concentrations: 100 to 0.78 μM) then a fixed amount of cytokine in PBS/BSA 1% is added to the compounds, in a final volume of 120 μl per well.”, “The cytokine is used in the absence of small molecule as well as the range of SPD304 as positive controls and the absence of cytokine and synthetic molecule as negative control.” left out
as §2, §3

IL-6 = IL-6 (Homo sapiens, UniProt P05231); experiment: Immunoassay binding test, IL-6 (gp130 receptor, IL-6Ra present); conditions: IL-6Ra 200 ng/ml
Protocol: as §1, §2, §3

Sequence of TNFa/TNFRI interaction (P01375 77-233 limits assumed): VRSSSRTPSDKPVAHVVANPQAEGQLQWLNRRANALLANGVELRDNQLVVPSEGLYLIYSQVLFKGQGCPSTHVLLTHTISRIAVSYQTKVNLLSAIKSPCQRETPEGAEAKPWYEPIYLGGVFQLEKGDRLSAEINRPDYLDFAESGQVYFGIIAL
Sequence of TNFα (P01375 77-233 limits assumed, species assumed): as the sequence (P01375 77-233 limits assumed) above
Sequence of IL-6 (P05231 30-212, species assumed): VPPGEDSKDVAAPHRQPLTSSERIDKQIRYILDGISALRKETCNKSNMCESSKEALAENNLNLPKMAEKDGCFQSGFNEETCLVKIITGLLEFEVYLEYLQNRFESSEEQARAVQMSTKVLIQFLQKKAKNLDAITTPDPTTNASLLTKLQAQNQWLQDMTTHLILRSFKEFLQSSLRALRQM
Sequence of IL-13 (P35225 25-146, species assumed): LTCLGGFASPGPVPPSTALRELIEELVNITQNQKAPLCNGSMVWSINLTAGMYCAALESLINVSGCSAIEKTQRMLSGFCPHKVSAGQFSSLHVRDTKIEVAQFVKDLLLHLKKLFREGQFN

| SMILES | Displacement (%) (TNFa/TNFRI interaction) | BINDING IL4 % Neutra at 100 μM (IL-4) | IC50 (IL-4) | BINDING IL13 % Neutra at 100 μM (IL-13) | IC50 (IL-13) | IC50 (TNFα) | BINDING IL6 % Neutra at 100 μM (IL-6) | Displacement EC50 TNFa in presence of compound: Difference (TNFa/TNFRI interaction) |
| --- | --- | --- | --- | --- | --- | --- | --- | --- |
| FC(F)(F)c1cccc(-n2cc(CN(CCNC3CCCCC3)Cc3ccncc3)c3ccccc32)c1 [Compound 29] | 103% | 96.4% | 6.2 µM | 86.8% | > 50 µM | 18.3 µM | 17.3% |  |
| FC(F)(F)c1cccc(-n2cc(CN(CCNC3CCCCC3)Cc3cccnc3)c3ccccc32)c1 [Compound 30] | 106% | 97.3% | 4 µM | 93.6% | > 50 µM | 19.9 µM | 16.8% |  |
| CN(CCN(Cc1ccncc1)Cc1cn(-c2cccc(C(F)(F)F)c2)c2ccccc12)C1CCCCC1 [Compound 31] | 120% | 96% | 5.7 µM | 81% | > 50 µM | 13.4 µM | 1.7% |  |
| CN(CCN(Cc1cccnc1)Cc1cn(-c2cccc(C(F)(F)F)c2)c2ccccc12)C1CCCCC1 [Compound 32] | 125% | 97.7% | 3.9 µM | 76.3% | > 50 µM | 15.9 µM | 15.5% |  |
| FC(F)(F)c1cccc(-n2cc(CN(CCCCCNC3CCCCC3)Cc3ccncc3)c3ccccc32)c1 [Compound 37] | 123% | 96.3% | 4 µM | 96.4% | 7.4 µM | 19.1 µM | 20.4% |  |
| FC(F)(F)c1cccc(-n2cc(CN(CCCCCNC3CCCCC3)Cc3cccnc3)c3ccccc32)c1 [Compound 38] | 139% | 95.7% | 3.9 µM | 98.9% | 1.5 µM | > 50 µM | 24.9% |  |
| CN(CCCCCN(Cc1cccnc1)Cc1cn(-c2cccc(C(F)(F)F)c2)c2ccccc12)C1CCCCC1 [Compound 40] | 157% | 96.4% | 2.7 µM | 94.2% | 11.2 µM | 19.9 µM | 16.4% | 4.2 ng/mL |
| O=S(=O)(c1ccccc1)n1cc(CN(Cc2cccc(F)n2)CC2CCCN(C3CCCCC3)C2)c2ccccc21 (stereo not shown) [Compound 41] | 152% | 94.7% | 4.8 µM | 87.6% | 9.2 µM | 7 µM | 0% | 4.7 ng/mL |
| Fc1ncccc1CN(Cc1cn(-c2cccc(C(F)(F)F)c2)c2ccccc12)CC1CCCN(C2CCCCC2)C1 (stereo not shown) [Compound 42] | 177% | 94.4% | 6.4 µM | 86.3% | 21.3 µM | 15.6 µM | 0% | 8.3 ng/mL |

Further lines, results first:

| Displacement (%) (TNFa/TNFRI interaction) | BINDING IL4 % Neutra at 100 μM (IL-4) | IC50 (IL-4) | BINDING IL13 % Neutra at 100 μM (IL-13) | IC50 (IL-13) | IC50 (TNFα) | BINDING IL6 % Neutra at 100 μM (IL-6) | Displacement EC50 TNFa in presence of compound: Difference (TNFa/TNFRI interaction) | SMILES |
| --- | --- | --- | --- | --- | --- | --- | --- | --- |
| 99% | 94.6% | 7.8 µM | 61.2% | > 50 µM | 22.6 µM | −15.3% |  | O=S(=O)(c1ccccc1)n1cc(CN(CCNC2CCCCC2)Cc2cccnc2)c2ccccc21 [Compound 25] |
| 107% | 95.5% | 8.4 µM | 66% | > 50 µM | 14.1 µM | −17.2% |  | O=S(=O)(c1ccccc1)n1cc(CN(CCNC2CCCCC2)Cc2ccncc2)c2ccccc21 [Compound 26] |
| 121% | 96.3% | 7.8 µM | 53.9% | > 50 µM | 13.8 µM | −12% |  | CN(CCN(Cc1cccnc1)Cc1cn(S(=O)(=O)c2ccccc2)c2ccccc12)C1CCCCC1 [Compound 27] |
| 125% | 96.6% | 8.1 µM | 38.3% | > 50 µM | 14.5 µM | 12.4% |  | CN(CCN(Cc1ccncc1)Cc1cn(S(=O)(=O)c2ccccc2)c2ccccc12)C1CCCCC1 [Compound 28] |
| 256% | 95.4% | 5.9 µM | 97.9% | > 50 µM | 7.2 µM | −4.8% | 9.9 ng/mL | O=S(=O)(c1ccccc1)n1cc(CN(CCCCCNC2CCCCC2)Cc2cccnc2)c2ccccc21 [Compound 34] |
| 181% | 96.1% | 5.6 µM | 97.1% | > 50 µM | 4.6 µM | −21.5% |  | CN(CCCCCN(Cc1ccncc1)Cc1cn(S(=O)(=O)c2ccccc2)c2ccccc12)C1CCCCC1 [Compound 35] |
| 165% | 97.4% | 3.4 µM | 95% | 19.8 µM | 3.9 µM | −1.8% |  | CN(CCCCCN(Cc1cccnc1)Cc1cn(S(=O)(=O)c2ccccc2)c2ccccc12)C1CCCCC1 [Compound 36] |
| 159% | 96% | 4.7 µM | 94.8% | > 50 µM | 14.7 µM | 23.7% | 4.2 ng/mL | CN(CCCCCN(Cc1ccncc1)Cc1cn(-c2cccc(C(F)(F)F)c2)c2ccccc12)C1CCCCC1 [Compound 39] |

Source: patent publication US20230416239A1, “COMPOUNDS AND METHODS FOR TREATING A CYTOKINE-MEDIATED DISEASE” (CONSERVATOIRE NATIONAL DES ARTS ET MÉTIERS, priority 2020, published 2023)
